In patent US8796245B2 (TetraPhase Pharmaceuticals, Inc., priority 2008, dated 2014) one finds MIC data, which are given here for 8 compounds.

What all share (format): cell-based
The test system of assay [1] is K. pneumoniae ATCC 13883 (KP109). The assay can be described thus: Minimum inhibitory concentration assay, KP109. The following applies: Klebsiella pneumoniae, ATCC13883; K. pneumoniae ATCC 13883, wt; read-out: MICs KP109. The procedure, abridged:
(§1)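 Inoculum of 0.5 McFarland was diluted 1:125 in Mueller Hinton Broth. Streptococcus media were blood-supplemented. Plates with serial compound dilutions were incubated overnight at 37° C, and MIC was recorded as the lowest inhibitory concentration.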

The subject of assay [2] is E. coli ATCC 25922 (EC107). In words: Minimum inhibitory concentration assay, EC107. The following applies: Escherichia coli, ATCC25922; E. coli ATCC 25922, wt; read-out: MICs EC107. Put shortly:
as §1

Assay [3] deals with S. aureus SA161 (tet resistant: tet(M) ribosomal protection). The assay can be described thus: Minimum inhibitory concentration assay, SA161. The following applies: Staphylococcus aureus, read-out: MICs SA161. Put shortly:
as §1

For assay [4], the system named is K. pneumoniae KP153 (tet resistant: tetA efflux). In words: microbe, parasite or virus in culture. The following applies: Klebsiella pneumoniae, read-out: MICs KP153. Put shortly: as §1
Assay [5] deals with S. aureus SA158 (tet resistant: tetK efflux). The assay can be described thus: microbe, parasite or virus in culture. As to conditions: Staphylococcus aureus, read-out: MICs SA158. Put shortly:
as §1

Assay [6] concerns E. coli EC155 (tet resistant: tetA efflux). The assay can be described thus: microbe, parasite or virus in culture. As to conditions: Escherichia coli; E. coli tet resistant: tetA (efflux); read-out: MICs EC155. The procedure, abridged: as §1
The subject of assay [7] is A. baumanii ATCC 19606 (AB110). The assay can be described thus: Minimum inhibitory concentration assay, AB110. As to conditions: Acinetobacter baumannii, ATCC19606; A. baumanii ATCC 19606, wt; read-out: MICs AB110. The procedure, abridged:
as §1

Assay [8] relates to P. aeruginosa ATCC 27853 (PA111). The assay can be described thus: Minimum inhibitory concentration assay, PA111. The following applies: Pseudomonas aeruginosa, ATCC27853; P. aeruginosa ATCC 27853, wt; read-out: MICs PA111. Put shortly:
as §1

Assay [9] has as its system S. pneumoniae ATCC 49619 (SP106). In words: Minimum inhibitory concentration assay, SP106. The following applies: Streptococcus pneumoniae, ATCC49619; S. pneumoniae ATCC 49619, wt; read-out: MICs SP106. Put shortly:
as §1

The subject of assay [10] is S. aureus ATCC 29213 (SA101, MSSA). The assay can be described thus: Minimum inhibitory concentration assay, SA101. The following applies: Staphylococcus aureus; S. aureus ATCC 29213, MSSA control; read-out: MICs SA101. Put shortly: as §1
Assay [11] has as its system E. faecalis EF159 (tet resistant: tetM). The assay can be described thus: Minimum inhibitory concentration assay, EF159. As to conditions: Enterococcus faecalis, read-out: MICs EF159. Put shortly: as §1
In assay [12] the test system is S. aureus ATCC 13709 (SA100, MSSA, Smith strain). The assay can be described thus: Minimum inhibitory concentration assay, SA100. The following applies: Staphylococcus aureus; S. aureus ATCC 13709, MSSA Smith strain; read-out: MICs SA100. Put shortly: as §1
Assay [13] concerns S. pneumoniae SP160 (tet resistant: tet M). In words: Minimum inhibitory concentration assay, SP160. As to conditions: Streptococcus pneumoniae, read-out: MICs SP160. Put shortly: as §1
For assay [14], the system named is E. faecalis ATCC 29212 (EF103). The assay can be described thus: Minimum inhibitory concentration assay, EF103. As to conditions: Enterococcus faecalis, ATCC29212, read-out: MICs EF103. The procedure, abridged: as §1
For assay [15], the system named is E. cloacae ATCC 13047 (EC108). In words: Minimum inhibitory concentration assay, EC108. The following applies: Enterobacter cloacae, ATCC13047; E. cloacae ATCC 13047, wt; read-out: MICs EC108. The procedure, abridged: as §1

SMILES strings stand for the structures. Converted amounts (≈) assume the structure as drawn.

`CN(C)[C@@H]1CCN(CC(=O)Nc2cc(F)c3c(c2O)C(=O)C2=C(O)[C@]4(O)C(=O)C(C(N)=O)=C(O)[C@@H](N(C)C)[C@@H]4C[C@@H]2C3)C1` [Compound 37]: the MIC in [1], in assay [2], in assay [3], in [4], in [5] and in assay [6] was more than 32 µg/mL each time. The MIC in [7] was more than 32 µg/mL; in assay [8], more than 32 µg/mL; in assay [9], 2 µg/mL (≈ 3.32 µM); in assay [10], 8 µg/mL (≈ 13.3 µM); in assay [11], 16 µg/mL (≈ 26.6 µM); in assay [12] it was 8 µg/mL (≈ 13.3 µM). Further, the MIC in assay [13] was 4 µg/mL (≈ 6.65 µM); in assay [14] it was 16 µg/mL (≈ 26.6 µM); in assay [15], more than 32 µg/mL.

Take `CN(C)[C@@H]1C(O)=C(C(N)=O)C(=O)[C@@]2(O)C(O)=C3C(=O)c4c(O)c(NC(=O)CN5CCCCC5)cc(F)c4C[C@H]3C[C@@H]12` [Compound 43]: the MIC in [1] was 2 µg/mL (≈ 3.49 µM); in [2], 1 µg/mL (≈ 1.75 µM); in [3] it was 1 µg/mL (≈ 1.75 µM); in assay [4], 4 µg/mL (≈ 6.99 µM); in [5], 0.5 µg/mL (≈ 0.873 µM); in assay [6], 4 µg/mL (≈ 6.99 µM). In addition, the MIC in [7] was 0.125 µg/mL (≈ 0.218 µM); in assay [8], 32 µg/mL (≈ 55.9 µM); in [9] it was not above 0.0156 µg/mL; in [10] it was 0.5 µg/mL (≈ 0.873 µM); in [11] it was 0.5 µg/mL (≈ 0.873 µM); in assay [12], 0.5 µg/mL (≈ 0.873 µM). Besides, the MIC in [13] was not above 0.0156 µg/mL; in [14] it was 0.25 µg/mL (≈ 0.437 µM); in assay [15], 4 µg/mL (≈ 6.99 µM).

As to `CN(C)[C@@H]1C(O)=C(C(N)=O)C(=O)[C@@]2(O)C(O)=C3C(=O)c4c(O)c(NC(=O)CNCC(F)(F)F)cc(F)c4C[C@H]3C[C@@H]12` [Compound 22], the MIC in assay [1] was 32 µg/mL (≈ 54.6 µM); in [2], 16 µg/mL (≈ 27.3 µM); in [3], 2 µg/mL (≈ 3.41 µM); in assay [4] it was more than 32 µg/mL; in assay [5], 4 µg/mL (≈ 6.82 µM); in assay [6], more than 32 µg/mL. The MIC in assay [7] was 2 µg/mL (≈ 3.41 µM); in assay [8], more than 32 µg/mL; in assay [9], 0.5 µg/mL (≈ 0.853 µM); in [10] it was 1 µg/mL (≈ 1.71 µM); in [11], 4 µg/mL (≈ 6.82 µM); in assay [12], 1 µg/mL (≈ 1.71 µM). For the same compound, the MIC in [13] was 1 µg/mL (≈ 1.71 µM); in assay [14], 2 µg/mL (≈ 3.41 µM); in assay [15], more than 32 µg/mL.

Regarding `CCCCCCNCC(=O)Nc1cc(F)c2c(c1O)C(=O)C1=C(O)[C@]3(O)C(=O)C(C(N)=O)=C(O)[C@@H](N(C)C)[C@@H]3C[C@@H]1C2` [Compound 14], the MIC was 1 µg/mL (≈ 1.7 µM) in [1]; 0.5 µg/mL (≈ 0.849 µM) in assay [2]; 0.5 µg/mL (≈ 0.849 µM) in [3]; 2 µg/mL (≈ 3.4 µM) in assay [4]; 0.25 µg/mL (≈ 0.425 µM) in assay [5]; 4 µg/mL (≈ 6.8 µM) in assay [6]. Moreover, the MIC in assay [7] amounted to 0.25 µg/mL (≈ 0.425 µM); in assay [8], 16 µg/mL (≈ 27.2 µM); in [9], 0.03 µg/mL (≈ 0.051 µM); in assay [10], 0.5 µg/mL (≈ 0.849 µM); in assay [11], 0.25 µg/mL (≈ 0.425 µM); in [12], 0.25 µg/mL (≈ 0.425 µM). The MIC in [13] is 0.125 µg/mL (≈ 0.212 µM); in assay [14], 0.125 µg/mL (≈ 0.212 µM); in assay [15] it was 2 µg/mL (≈ 3.4 µM).

Regarding `CN(C)[C@@H]1C(O)=C(C(N)=O)C(=O)[C@@]2(O)C(O)=C3C(=O)c4c(O)c(NC(=O)CNc5ccccc5)cc(F)c4C[C@H]3C[C@@H]12` [Compound 30], the MIC is more than 32 µg/mL in assay [1]; more than 32 µg/mL in assay [2]; 4 µg/mL (≈ 6.89 µM) in assay [3]; more than 32 µg/mL in [4]; 2 µg/mL (≈ 3.44 µM) in [5]; more than 32 µg/mL in [6]. In addition, the MIC is 8 µg/mL (≈ 13.8 µM) in assay [7]; more than 32 µg/mL in [8]; 2 µg/mL (≈ 3.44 µM) in assay [9]; 2 µg/mL (≈ 3.44 µM) in assay [10]; 2 µg/mL (≈ 3.44 µM) in assay [11]; 1 µg/mL (≈ 1.72 µM) in assay [12]. Further, the MIC was 4 µg/mL (≈ 6.89 µM) in assay [13], 2 µg/mL (≈ 3.44 µM) in assay [14] and more than 32 µg/mL in assay [15].

Turning to `CN(C)[C@H]1CCN(CC(=O)Nc2cc(F)c3c(c2O)C(=O)C2=C(O)[C@]4(O)C(=O)C(C(N)=O)=C(O)[C@@H](N(C)C)[C@@H]4C[C@@H]2C3)C1` [Compound 38], the MIC was more than 32 µg/mL in [1]; more than 32 µg/mL in assay [2]; 16 µg/mL (≈ 26.6 µM) in assay [3]; more than 32 µg/mL in assay [4]; 32 µg/mL (≈ 53.2 µM) in [5]; more than 32 µg/mL in assay [6]. The MIC in assay [7] is more than 32 µg/mL; in assay [8], more than 32 µg/mL; in assay [9], 2 µg/mL (≈ 3.32 µM); in [10], 8 µg/mL (≈ 13.3 µM); in assay [11] it was 16 µg/mL (≈ 26.6 µM); in [12], 8 µg/mL (≈ 13.3 µM). Moreover, the figures for the MIC in [13], in assay [14] and in [15] were 8 µg/mL (≈ 13.3 µM), 8 µg/mL (≈ 13.3 µM) and more than 32 µg/mL, respectively.

In the case of `CCCCCCCNCC(=O)Nc1cc(F)c2c(c1O)C(=O)C1=C(O)[C@]3(O)C(=O)C(C(N)=O)=C(O)[C@@H](N(C)C)[C@@H]3C[C@@H]1C2` [Compound 29], the MIC in [1] worked out at 8 µg/mL (≈ 13.3 µM); in assay [2], 8 µg/mL (≈ 13.3 µM); in assay [3], 4 µg/mL (≈ 6.64 µM); in assay [4], 8 µg/mL (≈ 13.3 µM); in assay [5], 2 µg/mL (≈ 3.32 µM); in [6], 8 µg/mL (≈ 13.3 µM). In addition, the MIC in [7] was 8 µg/mL (≈ 13.3 µM); in assay [8], more than 32 µg/mL; in [9], 1 µg/mL (≈ 1.66 µM); in assay [10], 4 µg/mL (≈ 6.64 µM); in [11], 2 µg/mL (≈ 3.32 µM); in assay [12], 4 µg/mL (≈ 6.64 µM). Besides, the MIC in assay [13] is 1 µg/mL (≈ 1.66 µM); in assay [14], 2 µg/mL (≈ 3.32 µM); in [15], 8 µg/mL (≈ 13.3 µM).

In the case of `CN(C)[C@@H]1C(O)=C(C(N)=O)C(=O)[C@@]2(O)C(O)=C3C(=O)c4c(O)c(NC(=O)CNCC(C)(C)C)cc(F)c4C[C@H]3C[C@@H]12` [Compound 15], the MIC in [1] stood at 2 µg/mL (≈ 3.48 µM); in [2] it was 1 µg/mL (≈ 1.74 µM); in assay [3], 0.5 µg/mL (≈ 0.87 µM); in assay [4], 4 µg/mL (≈ 6.96 µM); in [5], 0.25 µg/mL (≈ 0.435 µM); in assay [6], 4 µg/mL (≈ 6.96 µM). Also, the MIC was 0.125 µg/mL (≈ 0.218 µM) in assay [7]; 16 µg/mL (≈ 27.8 µM) in [8]; 0.016 µg/mL (≈ 0.0278 µM) in assay [9]; 0.5 µg/mL (≈ 0.87 µM) in [10]; 0.5 µg/mL (≈ 0.87 µM) in [11]; 0.5 µg/mL (≈ 0.87 µM) in assay [12]. Moreover, the MIC in assay [13] is 0.016 µg/mL (≈ 0.0278 µM); in [14], 0.5 µg/mL (≈ 0.87 µM); in [15], 4 µg/mL (≈ 6.96 µM).
